Patent US9428536B2, “Immunostimulatory G, U-containing oligoribonucleotides” (Zoetis Belgium SA, priority 2002, dated 2016)

Assays:
human TLR7 = biological target: T1, human TLR7 (Homo sapiens, UniProt Q9NYK1); test: NF-κB luciferase reporter in 293 HEK cells transfected with human TLR7; type: cell-based; details: FIG. 12; transient transfectants; 7 hours stimulation
T1 construct: All full-length TLR fragments were cloned into pGEM-T Easy vector; expressed in transfected cells; host or cells: 293 HEK cells (ATCC), transient electroporation with pcDNA3.1(-) TLR expression plasmid
T1 sequence (Q9NYK1 27-1049): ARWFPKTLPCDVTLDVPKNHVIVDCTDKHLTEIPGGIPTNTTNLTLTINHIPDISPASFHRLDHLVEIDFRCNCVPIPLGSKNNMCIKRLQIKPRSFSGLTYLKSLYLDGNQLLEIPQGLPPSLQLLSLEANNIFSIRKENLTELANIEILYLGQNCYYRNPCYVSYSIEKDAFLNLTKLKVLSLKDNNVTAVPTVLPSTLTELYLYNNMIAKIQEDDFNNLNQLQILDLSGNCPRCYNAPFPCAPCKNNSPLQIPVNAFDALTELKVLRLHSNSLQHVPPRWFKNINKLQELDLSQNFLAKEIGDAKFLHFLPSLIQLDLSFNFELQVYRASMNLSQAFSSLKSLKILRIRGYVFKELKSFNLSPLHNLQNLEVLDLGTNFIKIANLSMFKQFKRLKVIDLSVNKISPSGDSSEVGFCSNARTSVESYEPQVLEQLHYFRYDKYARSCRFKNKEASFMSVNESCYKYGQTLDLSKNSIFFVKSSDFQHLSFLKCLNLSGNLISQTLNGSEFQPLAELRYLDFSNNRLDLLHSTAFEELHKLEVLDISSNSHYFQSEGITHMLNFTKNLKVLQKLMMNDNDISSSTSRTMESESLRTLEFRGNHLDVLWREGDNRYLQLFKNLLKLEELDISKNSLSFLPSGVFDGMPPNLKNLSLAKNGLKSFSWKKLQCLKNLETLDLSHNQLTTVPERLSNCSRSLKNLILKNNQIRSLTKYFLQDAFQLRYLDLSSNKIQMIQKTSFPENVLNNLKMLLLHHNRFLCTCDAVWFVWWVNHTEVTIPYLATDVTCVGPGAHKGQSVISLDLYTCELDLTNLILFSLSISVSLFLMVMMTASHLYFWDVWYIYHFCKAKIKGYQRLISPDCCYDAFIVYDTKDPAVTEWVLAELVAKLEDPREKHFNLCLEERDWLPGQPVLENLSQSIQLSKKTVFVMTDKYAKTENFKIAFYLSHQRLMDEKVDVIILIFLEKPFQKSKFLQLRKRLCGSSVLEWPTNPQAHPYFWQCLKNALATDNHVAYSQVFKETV
Procedure: FIG. 12 depicts the responsiveness of human TLR7 and human TLR8 to ribonucleosides. It was determined that the response by human PBMC to RNA or RVC was mediated by TLR7 or TLR8 and further that the response could be driven by ribonucleosides only. Human 293 cells were either mock-transfected or transfected with human TLR7 or human TLR8 and monitored for responsiveness to ribonucleosides. The open reading frames of human TLR7 (hTLR7) and human TLR8 (hTLR8) were amplified by PCR from a cDNA library of human PBMC using the following primers pairs: for TLR7, 5′-[…]-3′ (SEQ ID NO:15) and 5′-[…]-3′ (SEQ ID NO:16); and for TLR8, 5′-[…]-3′ (SEQ ID NO:17) and 5′-[…]-3′ (SEQ ID NO:18). The sequence information for primer selection was obtained from Genbank accession numbers AF240467 and AF245703. All full-length TLR fragments were cloned into pGEM-T Easy vector (Promega, Mannheim, Germany), excised with NotI, cloned into the expression vector pcDNA 3.1(−) (Invitrogen, Karlsruhe, Germany) and sequenced. Sequences of the coding region of hTLR7 and hTLR8 correspond to the accession numbers AF240467 (SEQ ID NO:25) and AF245703, respectively (SEQ ID NO:29).
For monitoring transient NF-κB activation, 3×10^6 293 HEK cells (ATCC, VA, USA) were electroporated at 200 volt and 960 μF with 1 μg TLR expression plasmid, 20 ng NF-κB luciferase reporter-plasmid and 14 μg of pcDNA3.1(−) plasmid as carrier in 400 μl RPMI medium supplemented with 25% fetal bovine serum (FCS). Cells were seeded at 10^5 cells per well and after over night culture stimulated with R-848 (denoted in FIG. 12 as X; commercially synthesized by GLSynthesis Inc., Worcester, Mass., USA), RVCs or ribonucleosides for a further 7 hours. Stimulated cells were lysed using reporter lysis buffer (Promega, Mannheim, Germany), and lysate was assayed for luciferase activity using a Berthold luminometer (Wildbad, Germany).

human PBMC = test: Human PBMC IL-12 p40 secretion, ELISA; type: cell-based
Outline: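 Healthy-donor PBMC plated at 3×10^5 cells/well and stimulated 16 h (overnight) with RNA oligonucleotides (e.g. 50 μg/ml, or 10, 3 or 1 μg per 200 μl well), with or without DOTAP (10 μg/well). Secreted IL-12 p40 measured in supernatants by sandwich ELISA.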

CCOCc1nc2c(N)nc3ccccc3c2n1CC(C)(C)O [R-848, 4-amino-α,α-dimethyl-2-ethoxymethyl-1H-imidazo[4,5-c]quinoline-1-ethanol, reference compound]
response of TLR7 transfectants (NF-κB luciferase) (human TLR7): responded | IL-12 p40 response of human PBMC (in words) (human PBMC; Example 1, FIG. 1, 16 hours, RNA 50 μg/ml with and without DOTAP, R-848 2 μg/ml, LPS 1 μg/ml, Pam3Cys 5 μg/ml, poly IC 50 μg/ml): responsive | effect of DOTAP on the amount of IL-12 p40 secreted (human PBMC; Example 4, FIG. 5, presence versus absence of DOTAP, 16 hour incubation): about the same immunostimultory effect
